Results as given in patent publication US11530222B2, “Substituted pyrrolopyrimidine and pyrazolopyrimidine as Bruton's tyrosine kinase (BTK) degraders” (ACCUTAR BIOTECHNOLOGY INC., priority 2021, dated 2022).

Biological target: T1, BTK (Homo sapiens, UniProt Q06187)
T1 construct: BTK Degradative Activity of Exemplary Compounds of the Present Disclosure in a RAMOS Cell Line; host or cells: RAMOS
Experiment: BTK degradative activity in a RAMOS cell line (Western blot)
Assay type: cell-based
Conditions: 6 hours after administration, read-out: RAMOS BTK Degradation DC50
Description: RAMOS (ATCC) cells were plated in 24-well plates at 8×10^5 cells/well in the RPMI growth medium containing 10% heat-inactivated FBS and 1× Penicillin Streptomycin, and then incubated at 37° C. overnight. The following day, the test compound was administered to the cells by using 1000× compound stock solution prepared in DMSO at various concentrations. After administration of the compound, the cells were then incubated at 37° C. for 6 hours.
Upon completion, the cells were collected by centrifugation and lysed in Laemmli sample buffer (1×; VWR International). Proteins in cell lysate were separated by SDS-PAGE and transferred to Odyssey nitrocellulose membranes (Licor) with Iblot® dry blotting transfer system (ThermoFisher). Nonspecific binding was blocked by incubating membranes with Intercept Blocking Buffer (Licor) for 1 hour at room temperature with gentle shaking. The membranes were then incubated overnight at 4° C. with primary antibodies anti-BTK (Cell signaling, cat. #8547) and anti-GAPDH (Cell signaling, cat. #5179) diluted in Intercept Blocking Buffer containing 0.1% Tween 20. After washing 3 times with TBS-T, the membranes were incubated with IRDye® 800CW goat anti-mouse IgG (1:20,000, Licor) or IRDye® 800CW goat anti-rabbit IgG (1:20,000, Licor) for 1 hour. After TBS-T washes, membranes were rinsed in TBS and scanned on Odyssey® CLx Imaging System (Licor). The bands were quantified using Image Studio™ Software (Licor).
Table 3 summarizes the BTK degradative activity of exemplary compounds of the present disclosure in a RAMOS cell line 6 hours after administration. The DC50 values (i.e., the concentration of test compound at which 50% of the target protein is degraded) were calculated. A designation of “A” corresponds to a DC50 value less than 10 nM. A designation of “B” corresponds to a DC50 value greater than or equal to 10 nM and less than 100 nM. A designation of “C” corresponds to a DC50 value greater than or equal to 100 nM.

T1 sequence (Q06187 whole entry): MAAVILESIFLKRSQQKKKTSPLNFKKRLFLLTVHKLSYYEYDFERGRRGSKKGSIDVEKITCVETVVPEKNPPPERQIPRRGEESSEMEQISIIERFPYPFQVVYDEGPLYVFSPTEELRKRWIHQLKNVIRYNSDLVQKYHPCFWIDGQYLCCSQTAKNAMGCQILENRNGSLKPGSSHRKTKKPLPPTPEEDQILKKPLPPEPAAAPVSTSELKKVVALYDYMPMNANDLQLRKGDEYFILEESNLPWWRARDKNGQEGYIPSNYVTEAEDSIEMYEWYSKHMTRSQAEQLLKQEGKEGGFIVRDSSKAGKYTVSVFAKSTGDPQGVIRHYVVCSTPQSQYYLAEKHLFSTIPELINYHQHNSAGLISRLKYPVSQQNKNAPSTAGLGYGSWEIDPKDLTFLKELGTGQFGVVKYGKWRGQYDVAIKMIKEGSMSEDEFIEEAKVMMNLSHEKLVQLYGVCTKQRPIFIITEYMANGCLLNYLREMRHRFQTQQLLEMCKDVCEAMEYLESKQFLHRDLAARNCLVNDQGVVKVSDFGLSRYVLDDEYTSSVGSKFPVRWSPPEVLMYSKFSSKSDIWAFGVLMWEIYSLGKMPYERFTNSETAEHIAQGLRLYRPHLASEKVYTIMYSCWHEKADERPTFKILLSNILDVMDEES

DC50 [nM]	SMILES
10 to 100	O=C1CCC(N2C(=O)c3ccc(N4CCN(CCCCCC(=O)N5CCC(Nc6ncnc7[nH]cc(C(=O)c8ccc(Oc9ccccc9)cc8Cl)c67)CC5)CC4)cc3C2=O)C(=O)N1 (stereo not drawn) [Compound 28, 5-(4-(6-(4-((5-(2-chloro-4-phenoxybenzoyl)-7H-pyrrolo[2,3-d]pyrimidin-4-yl)amino)piperidin-1-yl)-6-oxohexyl)piperazin-1-yl)-2-(2,6-dioxopiperidin-3-yl)isoindoline-1,3-dione]
10 to 100	O=C1CCC(N2C(=O)c3ccc(N4CCN(CCCN5CCC(Nc6ncnc7[nH]cc(C(=O)c8ccc(Oc9ccccc9)cc8Cl)c67)CC5)CC4)cc3C2=O)C(=O)N1 (stereo not drawn) [Compound 26, 5-(4-(3-(4-((5-(2-chloro-4-phenoxybenzoyl)-7H-pyrrolo[2,3-d]pyrimidin-4-yl)amino)piperidin-1-yl)propyl)piperazin-1-yl)-2-(2,6-dioxopiperidin-3-yl)isoindoline-1,3-dione]
10 to 100	O=C1CCC(N2C(=O)c3ccc(N4CCN(CCCCCC(=O)N5CCC[C@@H](Nc6ncnc7[nH]cc(C(=O)c8ccc(Oc9ccccc9)cc8Cl)c67)C5)CC4)cc3C2=O)C(=O)N1 (stereo partly drawn) [Compound 7, 5-(4-(6-((R)-3-((5-(2-chloro-4-phenoxybenzoyl)-7H-pyrrolo[2,3-d]pyrimidin-4-yl)amino)piperidin-1-yl)-6-oxohexyl)piperazin-1-yl)-2-(2,6-dioxopiperidin-3-yl)isoindoline-1,3-dione]
≥ 100	O=C1CCC(N2C(=O)c3ccc(N4CCN(CCCCCCN5CCC(Nc6ncnc7[nH]cc(C(=O)c8ccc(Oc9ccccc9)cc8Cl)c67)CC5)CC4)cc3C2=O)C(=O)N1 (stereo not drawn) [Compound 18, 5-(4-(6-(4-((5-(2-chloro-4-phenoxybenzoyl)-7H-pyrrolo[2,3-d]pyrimidin-4-yl)amino)piperidin-1-yl)hexyl)piperazin-1-yl)-2-(2,6-dioxopiperidin-3-yl)isoindoline-1,3-dione]
10 to 100	O=C1CCC(N2C(=O)c3ccc(N4CCN(CCCCCCCN5CCC(Nc6ncnc7[nH]cc(C(=O)c8ccc(Oc9ccccc9)cc8Cl)c67)CC5)CC4)cc3C2=O)C(=O)N1 (stereo not drawn) [Compound 12, 5-(4-(7-(4-((5-(2-chloro-4-phenoxybenzoyl)-7H-pyrrolo[2,3-d]pyrimidin-4-yl)amino)piperidin-1-yl)heptyl)piperazin-1-yl)-2-(2,6-dioxopiperidin-3-yl)isoindoline-1,3-dione]
10 to 100	O=C1CCC(N2C(=O)c3ccc(N4CCN(CCCCCCCN5CCC[C@@H](Nc6ncnc7[nH]cc(C(=O)c8ccc(Oc9ccccc9)cc8Cl)c67)C5)CC4)cc3C2=O)C(=O)N1 (stereo partly drawn) [Compound 29, 5-(4-(7-((R)-3-((5-(2-chloro-4-phenoxybenzoyl)-7H-pyrrolo[2,3-d]pyrimidin-4-yl)amino)piperidin-1-yl)heptyl)piperazin-1-yl)-2-(2,6-dioxopiperidin-3-yl)isoindoline-1,3-dione]

The next lines start with the compound.

SMILES	DC50 [nM]
COc1ccc(C(=O)N2CCN(CCCCCCC(=O)N3CCC(Nc4ncnc5[nH]cc(C(=O)c6ccc(Oc7ccccc7)cc6Cl)c45)CC3)CC2)cc1N1CCC(=O)NC1=O [Compound 78, 1-(5-(4-(7-(4-((5-(2-chloro-4-phenoxybenzoyl)-7H-pyrrolo[2,3-d]pyrimidin-4-yl)amino)piperidin-1-yl)-7-oxoheptyl)piperazine-1-carbonyl)-2-methoxyphenyl)dihydropyrimidine-2,4(1H,3H)-dione]	< 10
O=C1CCC(N2C(=O)c3ccc(N4CCN(c5ccc(C(=O)N6CCC[C@@H](Nc7ncnc8[nH]cc(C(=O)c9ccc(Oc%10ccccc%10)cc9Cl)c78)C6)cn5)CC4)cc3C2=O)C(=O)N1 (stereo partly drawn) [Compound 2, 5-(4-(5-((R)-3-((5-(2-chloro-4-phenoxybenzoyl)-7H-pyrrolo[2,3-d]pyrimidin-4-yl)amino)piperidine-1-carbonyl)pyridin-2-yl)piperazin-1-yl)-2-(2,6-dioxopiperidin-3-yl)isoindoline-1,3-dione]	≥ 100
COc1ccc(C(=O)N2CCN(CCC3CCN(c4ccc(Nc5ncnc6[nH]cc(C(=O)c7ccc(Oc8ccccc8)cc7Cl)c56)cc4F)CC3)CC2)cc1N1CCC(=O)NC1=O [Compound 76, 1-(5-(4-(2-(1-(4-((5-(2-chloro-4-phenoxybenzoyl)-7H-pyrrolo[2,3-d]pyrimidin-4-yl)amino)-2-fluorophenyl)piperidin-4-yl)ethyl)piperazine-1-carbonyl)-2-methoxyphenyl)dihydropyrimidine-2,4(1H,3H)-dione]	≥ 100
O=C1CCC(N2C(=O)c3ccc(OCCCCCCCN4CCN(c5ccc(C(=O)N6CCC[C@@H](Nc7ncnc8[nH]cc(C(=O)c9ccc(Oc%10ccccc%10)cc9Cl)c78)C6)cn5)CC4)cc3C2=O)C(=O)N1 (stereo partly drawn) [Compound 1, 5-((7-(4-(5-((R)-3-((5-(2-chloro-4-phenoxybenzoyl)-7H-pyrrolo [2,3-d]pyrimidin-4-yl)amino)piperidine-1-carbonyl)pyridin-2-yl)piperazin-1-yl)heptyl)oxy)-2-(2,6-dioxopiperidin-3-yl)isoindoline-1,3-dione]	≥ 100
O=C1CCC(N2C(=O)c3ccc(N4CCN(CCC5CCN(c6ccc(Nc7ncnc8[nH]cc(C(=O)c9ccc(Oc%10ccccc%10)cc9Cl)c78)cc6F)CC5)CC4)cc3C2=O)C(=O)N1 (stereo not drawn) [Compound 44, 5-(4-(2-(1-(4-((5-(2-chloro-4-phenoxybenzoyl)-7H-pyrrolo[2,3-d]pyrimidin-4-yl)amino)-2-fluorophenyl)piperidin-4-yl)ethyl)piperazin-1-yl)-2-(2,6-dioxopiperidin-3-yl)isoindoline-1,3-dione]	≥ 100
COc1ccc(C(=O)N2CCN(Cc3ccc(C(=O)N4CCC(Nc5ncnc6[nH]cc(C(=O)c7ccc(Oc8ccccc8)cc7Cl)c56)CC4)cc3)CC2)cc1N1CCC(=O)NC1=O [Compound 80, 1-(5-(4-(4-(4-((5-(2-chloro-4-phenoxybenzoyl)-7H-pyrrolo[2,3-d]pyrimidin-4-yl)amino)piperidine-1-carbonyl)benzyl)piperazine-1-carbonyl)-2-methoxyphenyl)dihydropyrimidine-2,4(1H,3H)-dione]	≥ 100
COc1ccc(C(=O)N2CCN(CC3CCN(c4ccc(Nc5ncnc6[nH]cc(C(=O)c7ccc(Oc8ccccc8)cc7Cl)c56)cc4F)CC3)CC2)cc1N1CCC(=O)NC1=O [Compound 74, 1-(5-(4-((1-(4-((5-(2-chloro-4-phenoxybenzoyl)-7H-pyrrolo[2,3-d]pyrimidin-4-yl)amino)-2-fluorophenyl)piperidin-4-yl)methyl)piperazine-1-carbonyl)-2-methoxyphenyl)dihydropyrimidine-2,4(1H,3H)-dione]	≥ 100
O=C1CCC(N2C(=O)c3ccc(OCCCN4CCN(c5ccc(C(=O)N6CCC[C@@H](Nc7ncnc8[nH]cc(C(=O)c9ccc(Oc%10ccccc%10)cc9Cl)c78)C6)cn5)CC4)cc3C2=O)C(=O)N1 (stereo partly drawn) [Compound 4, 5-(3-(4-(5-((R)-3-((5-(2-chloro-4-phenoxybenzoyl)-7H-pyrrolo [2,3-d]pyrimidin-4-yl)amino)piperidine-1-carbonyl)pyridin-2-yl)piperazin-1-yl)propoxy)-2-(2,6-dioxopiperidin-3-yl)isoindoline-1,3-dione]	≥ 100
O=C1CC[C@H](N2Cc3cc(N4CCN(CCCCCC(=O)N5CCC(Nc6ncnc7[nH]cc(C(=O)c8ccc(Oc9ccccc9)cc8Cl)c67)CC5)CC4)ccc3C2=O)C(=O)N1 [Compound 13, (S)-3-(5-(4-(6-(4-((5-(2-chloro-4-phenoxybenzoyl)-7H-pyrrolo[2,3-d]pyrimidin-4-yl)amino)piperidin-1-yl)-6-oxohexyl)piperazin-1-yl)-1-oxoisoindolin-2-yl)piperidine-2,6-dione]	< 10
COc1ccc(C(=O)N2CCC(N3CCC(CC(=O)N4CCC(Nc5ncnc6[nH]cc(C(=O)c7ccc(Oc8ccccc8)cc7Cl)c56)CC4)CC3)CC2)cc1N1CCC(=O)NC1=O [Compound 73, 1-(5-(4-(2-(4-((5-(2-chloro-4-phenoxybenzoyl)-7H-pyrrolo[2,3-d]pyrimidin-4-yl)amino)piperidin-1-yl)-2-oxoethyl)-[1,4′-bipiperidine]-1′-carbonyl)-2-methoxyphenyl)dihydropyrimidine-2,4(1H,3H)-dione]	10 to 100
O=C1CCC(N2Cc3c(C#CCCCCCC(=O)N4CCC(Nc5ncnc6[nH]cc(C(=O)c7ccc(Oc8ccccc8)cc7Cl)c56)CC4)cccc3C2=O)C(=O)N1 (stereo not drawn) [Compound 40, 3-(4-(8-(4-((5-(2-chloro-4-phenoxybenzoyl)-7H-pyrrolo[2,3-d]pyrimidin-4-yl)amino)piperidin-1-yl)-8-oxooct-1-yn-1-yl)-1-oxoisoindolin-2-yl)piperidine-2,6-dione]	≥ 100
O=C1CC[C@H](N2Cc3cc(N4CCN(C5CC(CC(=O)N6CCC(Nc7ncnc8[nH]cc(C(=O)c9ccc(Oc%10ccccc%10)cc9Cl)c78)CC6)C5)CC4)ccc3C2=O)C(=O)N1 (stereo partly drawn) [Compound 42, (S)-3-(5-(4-(3-(2-(4-((5-(2-chloro-4-phenoxybenzoyl)-7H-pyrrolo[2,3-d]pyrimidin-4-yl)amino)piperidin-1-yl)-2-oxoethyl)cyclobutyl)piperazin-1-yl)-1-oxoisoindolin-2-yl)piperidine-2,6-dione]	< 10
